Reference: PubChem BioAssay AID463074 (Broad Institute, 2010)
Active and inactive are the calls of the source.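 The calls were made as follows: active = AC50 no more than tenfold above the top dose tested, or full inhibition at every dose with a flat fit (cut at about 19 µM in these data); inconclusive = flat curve fit with inhibition between 30% and 70%, or poor fit; inactive = AC50 more than tenfold above the top dose tested.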

Test system: HMLE_sh_eGFP viability, CellTiter-Glo luminescence, 72 h
Test: viability loss of HMLE_sh_eGFP cells – cell-based, luminescence, counter-screen for HMLE_sh_ECad selective toxicity project, dose response (AID 463074);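 also: counterscreen control line to flag general toxicity for the HMLE_sh_ECad screen; potency for loss of viability as luminescence drops below DMSO wells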

Row | Structure (SMILES) | AC50
1 | Clc1ccc2c(N/N=C/c3cccc(Br)c3)ccnc2c1 | 4.06 µM
2 | O=C(Nc1ccc(CN2CCOCC2)cc1)c1ccc(-c2ccc(Cl)cc2Cl)o1 | 7.06 µM
3 | CN1CCN(c2ccc(S(=O)(=O)N3CCCCC3)cc2NC(=O)/C=C/c2ccc(Cl)c([N+](=O)[O-])c2)CC1 | 4.42 µM
4 | N#C/C(=C/c1ccc(O)c(O)c1)C(=O)NCc1ccc(Cl)cc1 | 13.7 µM
5 | CCOC(=O)/C(=C\c1ccc(Cl)cc1)c1nc2sc(C)c(C)c2c(=O)[nH]1 | 1.54 µM
6 | CC1(C)C=Cc2c(ccc3c2OC[C@@H](c2ccc(O)cc2O)C3)O1 | 7.27 µM
7 | COc1cccc(/C=C/C(=C2/C(=O)N(c3ccccc3)N=C2C)c2ccc(Br)cc2)c1OC | > 19.5 µM (inactive)
8 | CC(C)c1ccc(N2C(=O)NC(=O)/C(=C/C=C/c3ccco3)C2=O)cc1 | 2.29 µM
9 | CCCCc1ccc(N=N/C(C(=O)Nc2ccc(NC(C)=O)cc2OC)=C(/C)O)cc1 | 17.7 µM
10 | COc1ccc(Br)cc1C(=O)Nc1cccc(C)c1 | > 19.5 µM (inactive)
11 | O=C(NCC(c1cccs1)N1CCOCC1)c1ccc(Cl)s1 (stereo not drawn) | 1.76 µM
12 | O=C(NCc1ccco1)c1cc(-c2ccc3c(c2)OCO3)on1 | 0.973 µM
13 | O=[N+]([O-])c1ccc(S(=O)(=O)Nc2ccc(-c3csc(-c4ccccc4)n3)cc2)cc1 | 4.06 µM
14 | O=C(NCCc1c[nH]c2ccccc12)C(=O)c1c[nH]c2ccccc12 | 6.75 µM
15 | CC(=O)Nc1ccc(-c2csc(NC(=O)Cc3cccc(F)c3)n2)cc1 | 5.64 µM
16 | C=CCn1c(CNc2ccc(C)cc2)nnc1SCC(=O)N/N=C/c1ccc(O)cc1O | 2.97 µM
17 | CCCCC1CCC(C(=O)N(CC(C)C)c2c(N)n(Cc3ccccc3)c(=O)[nH]c2=O)CC1 (stereo not drawn) | 4.62 µM
18 | O=C(CSc1nc2nc(-c3cccs3)cc(C(F)(F)F)c2c(=O)[nH]1)Nc1ccc(F)c(F)c1 | 2.56 µM
19 | CC(C)c1ccc2c(c1)c(SC(C)(C)C)c(CC(C)(C)C(=O)O)n2Cc1ccc(Cl)cc1 | 2 µM
20 | O=C1CC(=Nc2ccccc2)NN1c1ccccc1 | 12.4 µM
21 | C=C(CC[C@@H](O)C(C)(C)O)[C@H]1CC[C@]2(C)[C@@H]1CCC1[C@@]3(C)CC[C@H](O)C(C)(C)C3CC[C@]12C (stereo partly drawn) | 1.13 µM
22 | C=CCn1c(O)c(C2=c3ccccc3=NC2=O)sc1=Nc1ccc(O)cc1 | 6.76 µM
23 | CC(C)c1ccc(NC(=O)C(c2ccccc2)N(C)C(=O)CCc2c[nH]c3ccccc23)cc1 (stereo not drawn) | 7.92 µM
24 | COc1ccc(-n2cc(-c3ccccc3)c3c(N4CCOCC4)ncnc32)cc1 | 6.91 µM
25 | O=C(Cn1ncc(Cl)c(Cl)c1=O)NCC1CCCCC1 | 5.74 µM
26 | Cc1cccc(OCCNc2cc(N3CCN(C)CC3)ccc2[N+](=O)[O-])c1 | 5.34 µM

Row | Structure (SMILES) | AC50
27 | CC(C)(C)c1ccc(C(=O)NC(=S)Nc2nc3c(s2)CCCC3)cc1 | 2.18 µM
28 | CC(=O)Nc1ccc(SC[C@H](C)CN2CC[C@H](C(C)(C)C)CCC2=O)cc1 | 4.98 µM
29 | CCc1cc(-c2n[nH]c(C)c2Oc2ccc(C(C)C)cc2)c(O)cc1O | 3.65 µM
30 | CN(/N=C/c1cc(Cl)cc(Cl)c1O)C(=S)NC(C)(C)C | 2.75 µM
31 | Cc1ccc(/C=C/C(=O)N2CC(C)CC(C)C2)o1 (stereo not drawn) | 17 µM
32 | Cc1ccc(S(=O)(=O)Nc2ccc(C(OC(=O)c3ccccc3[N+](=O)[O-])(C(F)(F)F)C(F)(F)F)cc2)cc1 | 7.19 µM
33 | CCCCCCOc1ccc(OC(=O)c2ccncc2)cc1 | 5.43 µM
34 | COc1ccc2cc1Oc1ccc(cc1)C[C@H]1c3c(cc(OC)c4c3Oc3c(ccc5c3[C@H](C2)N(C)CC5)O4)CCN1C | 3.63 µM
35 | COc1ccc(/C=C/C(=O)c2ccc(NS(=O)(=O)c3ccc(C)cc3)cc2)cc1O | 3.56 µM
36 | CC(OC(=O)c1cccs1)C(=O)NC1CCCCC1C (stereo not drawn) | > 19.5 µM (inactive)
37 | COc1ccc(C(CCNCc2ccc(OC(C)C)cc2)c2ccccc2OC)cc1 (stereo not drawn) | 4.66 µM
38 | O=c1/c(=C\c2cccc(O)c2)sc2nc(-c3ccccc3)c(-c3ccccc3)n12 | 6.21 µM
39 | COc1ccc2sc(-c3ccc(SC)cc3)c(C#CCO)c2c1 | 8.45 µM
40 | O=C(CCc1ccc(Oc2cc([N+](=O)[O-])cc([N+](=O)[O-])c2)cc1)N1CCCCCC1 | 8.85 µM
41 | CCCCOc1ccc(C(=O)Nc2ccc3c(c2)OCO3)cc1 | 3.66 µM
42 | COc1cc(Cl)c(NC2=CC(=O)C(=O)c3ccccc32)c(OC)c1 | 3.57 µM
43 | Cn1cccc1-c1nc2ccccc2n1Cc1ccccc1 | 13.6 µM
44 | O=C(/C=C/c1ccccc1)NC(NC(=S)Nc1cc(Cl)ccc1Cl)C(Cl)(Cl)Cl (stereo not drawn) | 6.28 µM
45 | Oc1ccc(N=Nc2ccc(Br)cc2)c(O)c1 | 17.3 µM
46 | Cc1ccc(C)c(N2CCN(C(=S)Nc3ccc4nc(N5CCN(C)CC5)cc(C)c4c3)CC2)c1 | 7.7 µM
47 | COc1ccc(/C=N/NC(=O)c2cc(C34CC5CC(CC(C5)C3)C4)[nH]n2)cc1O | 1.8 µM
48 | CN(C(=S)Nc1ccc(SC(F)F)cc1)C(c1ccccc1)c1ccccc1 | 5.58 µM
49 | Oc1ccc(N=Nc2ccc3ccccc3c2)cc1 | 7.43 µM
50 | COc1cc(CNC(C)(C)CO)cc(Br)c1OCc1ccc(Cl)cc1Cl | 6.07 µM
51 | Cc1cccc(OCc2n(CC(=O)OC3CC(C)CCC3C(C)C)c3ccccc3[n+]2C)c1 (stereo not drawn) | 3.47 µM
52 | COc1ccc(OC)c(-c2cc(-c3cccnc3)nc(N)c2C#N)c1 | 1.95 µM

Row | Structure (SMILES) | AC50
53 | CCc1ccc2oc(C(=O)NCC(c3ccc(OC)cc3)N3CCCCC3)c(C)c2c1 (stereo not drawn) | 6.09 µM
54 | CC12CCC(C/C1=N\N=C1\NC(=O)/C(=C\c3cccc(Br)c3)S1)C2(C)C (stereo not drawn) | 2.49 µM
55 | O=c1c2cc(NC(=S)NCCCN3CCC(Cc4ccccc4)CC3)ccc2nc2n1CCCCC2 | 6.21 µM
56 | CN(C)CCNC(=O)c1sc2nc(-c3ccccc3)cc(C(F)(F)F)c2c1N | 5.23 µM
57 | Cc1nn(-c2ccc(F)cc2)c(Cl)c1/C=C1\C(=O)Nc2ccccc21 | 2.34 µM
58 | CCn1c(=O)c([N+](=O)[O-])c(Cl)c2ccccc21 | 3.56 µM
59 | CC(C)OCCCNC(=O)c1c(N)n(Cc2cccs2)c2nc3ccccc3nc12 | 4.3 µM
60 | O=C(Nc1cccc(Cl)c1N1CCCCC1)c1ccc2c(c1)OCCO2 | 11.4 µM
61 | Cc1ccc(Nc2cc(C)c3ccc(O)cc3n2)cc1C | 9.16 µM
62 | CCOC(=O)/C(=C\c1ccc([N+](=O)[O-])cc1)C(=O)c1cc(C(C)=O)c(Nc2ccccc2)s1 | 1.07 µM
63 | COC(=O)c1ccc(COc2ccccc2/C=C(\C#N)C(=O)Nc2c(C)cccc2C)cc1 | 2.86 µM
64 | O=S(=O)(N/N=C1/CC(c2ccccc2)Oc2ccccc21)c1ccc(Br)cc1 (stereo not drawn) | 4.21 µM
65 | O=C(Nc1cccc(Cl)c1)Nc1cc(S(=O)(=O)N2CCCCC2)ccc1Cl | 2.82 µM
66 | c1ccc(CN2CCC(Nc3nc(-c4ccccc4)nc4ccccc34)CC2)cc1 | 6.67 µM
67 | Cn1c2ccccc2c(=O)c2cc(C#Cc3ccccn3)ccc21 | > 19.5 µM (inactive)
68 | CN1CC(c2ccccc2)C2(SC(=S)N(Cc3ccco3)C2=O)C12C(=O)Nc1ccccc12 (stereo not drawn) | 7.31 µM
69 | Cc1cc(C)cc(NS(=O)(=O)c2ccc3[nH]cc(C(=O)NCc4ccco4)c(=O)c3c2)c1 | 1.5 µM
70 | O=C(CSc1ncnc2nc[nH]c12)c1ccc(Cl)cc1 | 6.23 µM
71 | COCCNc1nnc(SC(C)C(=O)Nc2ccc(-c3nc4ccc(C)cc4s3)cc2)s1 (stereo not drawn) | 10.5 µM
72 | Cc1nc(NCc2ccco2)c2c(C)c(C)sc2n1 | 5.22 µM
73 | OC(CNCc1ccco1)Cn1c2ccc(Br)cc2c2cc(Br)ccc21 (stereo not drawn) | 3.64 µM
74 | COc1ccc(C=C2C=C(C(C)(C)C)C(=O)C(C(C)(C)C)=C2)cc1OC | 3.47 µM
75 | CCCc1c(-c2ccc(O)cc2)nn(-c2ccc(O)cc2)c1-c1ccc(O)cc1 | 6.1 µM
76 | Cc1ccc(Sc2c([N+](=O)[O-])c(=O)n(C)c3ccccc23)cc1 | 7.05 µM
77 | C[C@@H]1O[C@@H](O[C@H]2C[C@@H](O)[C@]3(CO)[C@H]4[C@H](O)C[C@]5(C)[C@@H](C6COC(=O)C6)CC[C@]5(O)[C@@H]4CC[C@]3(O)C2)[C@H](O)[C@H](O)[C@H]1O (stereo partly drawn) | 0.74 µM
78 | COc1cc(-c2ccc3oc(-c4cccc(C)c4)c(C#CC4(O)CCCCC4)c3c2)cc(OC)c1OC | 15.4 µM

Row | Structure (SMILES) | AC50
79 | COc1cc(CNc2ccc(CNc3ncn[nH]3)cc2)ccc1OCc1ccccc1 | 0.708 µM
80 | O=C(Nc1ccc(S(=O)(=O)N2CCOCC2)cc1)c1cc(-c2cc(Cl)ccc2O)n[nH]1 | 2.18 µM
81 | CC(C)c1ccc(/C=N/NC(=O)c2cccc(Cl)c2)cc1 | 8.64 µM
82 | CCCCCCSc1cccc(-c2nc3ccccn3c2NCc2ccccc2)c1 | 5.27 µM
83 | CC(=O)Oc1ccc(C(=O)Nc2ccc(C3(C#N)CCCC3)cc2)cc1 | 8.24 µM
84 | c1ccc(-c2c(-c3ccccc3)n(Cc3ccco3)c3ncnc(NCCCn4ccnc4)c23)cc1 | 6.74 µM
85 | Cc1cccc(-n2cc(CN(C)Cc3nccn3C)c(-c3cccc(F)c3)n2)c1 | 15.5 µM
86 | COc1cc(/C=N/O)cc(Br)c1OCc1cccc(Cl)c1 | 6.68 µM
87 | COc1ccc(NC(=O)c2c(N)no[n+]2[O-])cc1 | 1.34 µM
88 | O=C(Nc1ccc(Cn2cccn2)cc1)c1ccc(COc2cccc(Br)c2)cc1 | 0.302 µM
89 | Cc1ccc(N2C(=O)NC(=O)/C(=C/C=C/c3ccco3)C2=O)cc1 | 3.29 µM
90 | COc1cc(NS(C)(=O)=O)ccc1Nc1c2ccccc2nc2ccccc12 | 2.11 µM
91 | Oc1ccc(-c2cnc(-c3ccc(O)cc3)nc2)cc1 | 0.304 µM
92 | C1=C(c2sc3ccccc3c2-c2ccc(OCCN3CCOCC3)cc2)CCCC1 | 1.94 µM
93 | CCN1CCN(CCNC(=O)c2ccc3c(c2)N(Cc2ccc(F)cc2)C(=O)/C(=C/c2ccccc2)S3)CC1 | 3.71 µM
94 | CN(C)c1ccc(/C=N/NC(=O)C(=O)/C=C2\NC3(CCCC3)Cc3ccccc32)cc1 | 6.5 µM
95 | O=c1c2c3c(sc2ncn1/N=C/c1ccc([N+](=O)[O-])o1)CCCC3 | 6.48 µM
96 | CC(C)N(C(=O)CSc1nc2ccccc2n1-c1ccccc1)C(C)C | 7.62 µM
97 | COc1cccc(-c2sc3ccccc3c2-c2ccc(OCCN3CCCCC3)cc2)c1 | 1.41 µM
98 | CCCS(=O)(=O)c1c(S(=O)(=O)CCC)c2c(C)cccn2c1C(=O)N/N=C/c1cc(O)cc(O)c1 | 1.72 µM
99 | CCN1C(=O)C(CC(=O)Nc2ccc(OC)cc2)N(CCCN2CCN(c3ccc(F)cc3)CC2)C1=S (stereo not drawn) | 7.04 µM
100 | Cc1ccc(/C=N/NC(=O)CNC(=O)COc2ccccc2)o1 | > 19.5 µM (inactive)
101 | Oc1cccc(/C=C/c2ccc3cccc(O)c3n2)c1 | 4.83 µM
102 | CCCCC[C@@H]1C=C(C(=O)O)[C@H](c2ccc(Cl)c(Cl)c2)N1S(=O)(=O)c1ccc(C)cc1 | 5.05 µM
103 | NS(=O)(=O)c1ccc(NC(=O)COC(=O)c2c3c(nc4ccccc24)/C(=C\c2ccc4c(c2)OCO4)CCC3)cc1 | 6.87 µM
